One molecule from article PMC7816853, “Overexpression of the chloroplastic 2-oxoglutarate/malate transporter disturbs carbon and nitrogen homeostasis in rice” (Journal of Experimental Botany, 2020) can be followed below.

The test concerns the target T1, ZmOMT1 (Zea mays, UniProt Q768R5).
T1 construct: gene ZmpOMT1; full-length CDS with C-terminal AcV5 tag kept; expressed in transgenic rice (Oryza sativa indica IR64) leaf mesophyll; total leaf membrane protein reconstituted into liposomes; calculated ~60 kDa, 40 kDa on blot
T1 sequence (Q768R5 81-578): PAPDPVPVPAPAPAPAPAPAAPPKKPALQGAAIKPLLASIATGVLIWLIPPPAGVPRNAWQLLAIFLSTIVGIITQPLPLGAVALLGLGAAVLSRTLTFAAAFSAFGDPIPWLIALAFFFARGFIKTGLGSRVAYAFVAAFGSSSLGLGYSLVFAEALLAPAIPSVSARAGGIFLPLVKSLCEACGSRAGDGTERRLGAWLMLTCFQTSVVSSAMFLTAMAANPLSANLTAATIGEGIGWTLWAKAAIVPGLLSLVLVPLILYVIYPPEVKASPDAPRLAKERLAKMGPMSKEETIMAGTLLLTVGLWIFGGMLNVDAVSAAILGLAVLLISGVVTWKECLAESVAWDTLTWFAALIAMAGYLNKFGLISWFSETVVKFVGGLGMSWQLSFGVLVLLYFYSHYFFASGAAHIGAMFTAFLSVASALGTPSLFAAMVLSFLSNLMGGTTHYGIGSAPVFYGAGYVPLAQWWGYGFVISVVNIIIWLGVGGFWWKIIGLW
The test is described as follows: […]malate uptake into proteoliposomes, malate/malate counterexchange. It counts as biochemical. The note with it: pH 7.5; 30 mM malate preloaded inside; 0.3 mM external [14C]malate; total leaf membrane protein of transgenic rice versus wild type (native rice transporters present); labelled compound.

As to `O=C(O)C[C@H](O)C(=O)O` [malate], the “[14C]malate uptake into proteoliposomes, malate/malate counterexchange” value is “significantly higher malate–malate counterexchange activity in liposomes reconstituted with membrane proteins from overexpression lines”.
